These results are taken from patent US20240336583A1, “BENZO-RING-CONTAINING DERIVATIVE, AND PREPARATION METHOD THEREFOR AND USE THEREOF” (SHUJING BIOPHARMA CO., LTD, priority 2021, published 2024).

What all share (assay type): in vivo
The subject of data set [1] is ICR mice. Briefly: Mouse righting reflex test (ED50, sequential method, tail vein bolus). As to conditions: for Symptoms in test animals in ED50 test: after tail vein administration; for ED50 (median effective dose: dose required to cause 50% of the mice to lose the righting reflex) / ED50: tail vein bolus within 10 seconds, sequential method, AOT425 software; for ED50: Mus musculus, read-out: ED50 (median effective dose: dose required to cause 50% of the mice to lose the righting reflex). Here is the method:
The ED50 value and LD50 value of the compound of the present invention were measured using a sequential method. The TI (therapeutic index) of the drug was calculated.
(§1) SPF grade ICR mice (Pizhou Oriental Breeding Co., Ltd.), 22-28 g, 15 mice/group. All mice received 3 days of quarantine and acclimation and were transferred from the feeding room to the laboratory for acclimation 1 h prior to the experiment.
(§2) The test compound was dissolved in 20% fat emulsion or purified water to prepare a 5 mg/ml drug liquid.
(§3) During the test, firstly a mouse was dosed at the tail vein, and the bolus injection was completed within 10 seconds. […] Finally, the AOT425 Statpm software was used to calculate the ED50 (median effective dose: the dose required to cause 50% of the mice to lose the righting reflex by the test) and LD50 (median lethal dose: the dose required to cause 50% of the mice to die by the test) values. The formula for TI (therapeutic index) was: TI=LD50/ED50.

The nature of data set [2]: Mouse LD50 test (sequential method, tail vein bolus). To be noted: mouse, in vivo, intravenous; ICR mice, tail vein bolus within 10 seconds, sequential method, AOT425 software; read-out: LD50 (median lethal dose: dose required to cause 50% of the mice to die). Here is the method: (§4) The ED50 value and LD50 value of the compound of the present invention were measured using a sequential method. The TI (therapeutic index) of the drug was calculated. The animal symptoms in the experimental process were observed, and the drug effect, safety and side effects of the compound of the present invention were examined.
as §1, §2, §3

Data set [3] deals with ICR mice. Described as above. As to conditions: TI=LD50/ED50, ICR mice, tail vein. Here is the method: as §4, §1, §2, §3

Regarding `CC1COc2c(F)cc(C(C)C3CC3)c(O)c21` (single isomer, unassigned) [Example 4, 5-(1-cyclopropylethyl)-7-fluoro-3-methyl-2,3-dihydrobenzofuran-4-ol], in data set [1], the “Symptoms in test animals in ED50 test” value is on record as “The animals' condition was stable after” and the “ED50 (median effective dose: dose required to cause 50% of the mice to lose the righting reflex)” value stood at 8.9 mg/kg. For the same compound, the LD50 – broadly, the dose at which mortality reaches 50% – in data set [2] stood at 62.5 mg/kg. In data set [3], the “TI (therapeutic index)” value worked out at 7.0.
As to `CC1COc2c(F)cc(C(C)C3CC3)c(OCOP(=O)([O-])[O-])c21.[Na+].[Na+]` (single isomer, unassigned) [Example 10A1, sodium (5-(1-cyclopropyl)-7-fluoro-3-methyl-2,3-dihydrobenzofuran-4-yl) oxymethyl phosphate], the “Symptoms in test animals in ED50 test” value in data set [1] was “The animals' condition was stable after”.
Take `CC1COc2c(F)cc(C(C)C3CC3)c(O)c21` (single isomer, unassigned) [Example 11A1, 5-(1-cyclopropylethyl)-7-fluoro-3-methyl-2,3-dihydrobenzofuran-4-ol]: in data set [1], the “Symptoms in test animals in ED50 test” value is listed as “The animals' condition was stable after” and the “ED50 (median effective dose: dose required to cause 50% of the mice to lose the righting reflex)” value stood at 4.0 mg/kg.
On to `CC(C)c1cccc(C(C)C)c1OCOP(=O)(O)O` [Fospropofol sodium, reference compound], for which, in data set [1], the ED50 (usually the dose that gives a 50% effect, or the effect in half of the subjects) was determined as 112 mg/kg.
`CC(C)c1cccc(C(C)C)c1O` [Propofol, reference compound]: in data set [1], the ED50 is 12.9 mg/kg and the “Symptoms in test animals in ED50 test” value is listed as “Some animals exhibited body twitching and”. Moreover, in data set [2], the LD50 came out at 55.9 mg/kg. The “TI (therapeutic index)” value in data set [3] came out at 4.3.
